From patent US20250332112A1, “IONIZABLE CATIONIC LIPIDS FOR LIPID NANOPARTICLES” (GENEVANT SCIENCES GMBH, priority 2022, published 2025)

Columns and labels:
[1] = Particle characteristics of LNPs containing EGFP mRNA and novel ionizable lipids; format: physicochemical; conditions: EGFP mRNA LNP 1.6:54.6:32.8:10.9
Method in brief: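 LNPs of PEG-lipid, ionizable lipid, cholesterol and phospholipid in ethanol were mixed 1:1 with mRNA in 100 mM acetate pH 5 via T-junction, diluted in PBS, dialysed, concentrated to ~0.6 mg/mL and exchanged into 5 mM Tris, 10% sucrose, pH 8. Size and polydispersity by Zetasizer; nucleic acid by RiboGreen.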

[2] = Parent ionizable lipid remaining in liver at 6 h after luciferase mRNA LNP (LC-MS); format: in vivo; conditions: 6 h after IV 0.5 mg/kg Luciferase mRNA LNP
[3] = Lipid clearance from liver over time after human OTC mRNA LNP (LC-MS); format: in vivo; conditions: IV 0.5 mg/kg human OTC mRNA LNP, male C57BL/6 mice (n = 4)
Experimental: LNP formulations encapsulating ornithine transcarbamylase mRNA were injected intravenously at the specified dose levels to male C57BL/6 mice (6-8 weeks old).
Liver tissues were treated with PBS and homogenized with a FastPrep machine, 3 cycles of 5 m/s×15 s. Homogenates from the PBS-treated control animals was pooled and used for standard curve preparation. Samples were extracted into a deep well plate with 250 μL of an internal suitability standard. Plates were centrifuged for 15 min at 4° C. and 2000 rpm. Analysis was performed using an Agilent 6520 QTOF coupled to an Agilent 1290 UHPLC, using reverse-phase LC separation. Quantitation of the ionizable lipid was by MS/MS against a calibration curve spiked into appropriately matched blank matrix. Calibration used a similar class of synthetic lipid as internal standard.
At various timepoints post-dose, lipid levels were assessed in the liver. Some novel ionizable lipids reported more rapid clearance rates compared to the benchmark (Table 19).

[4] = test system: EGFP expression in the liver; test: Dose response of EGFP mRNA LNP, EGFP expression in liver; format: in vivo; conditions: 24 h, female BALB/c mice (n = 4)
Experimental: At 24 h post-dose, the novel lipid formulations reported dose-dependent increases in EGFP expression in the liver (Table 32).

Q: For CCCCC/C=C\CCCC(CCC/C=C\CCCCC)C(CCC/C=C\CCCCC)OC(=O)CCCCN(C)C (stereo not drawn) [Compound 13-B43, reference compound], which “Final Product % EE” value ([1]; Table 20) is on record?
A: 98%

Q: And the “Final Product PDI” value ([1]; Table 20)?
A: 0.07

Q: And the “Final Product Z-avg” value ([1]; Table 20)?
A: 75 nm

Q: What about the “Final Product % EE” value ([1]; Table 21) of the same compound?
A: 97%

Q: And the “Final Product PDI” value ([1]; Table 21)?
A: 0.08

Q: What about the “Final Product Z-avg” value ([1]; Table 21) of the same compound?
A: 75 nm

Q: And the “Final Product % EE” value ([1]; Table 22)?
A: 97%

Q: And the “Final Product PDI” value ([1]; Table 22)?
A: 0.08

Q: And the “Final Product Z-avg” value ([1]; Table 22)?
A: 73 nm

Q: What about the “Final Product % EE” value ([1]; Table 23) of the same compound?
A: 98%

Q: And the “Final Product PDI” value ([1]; Table 23)?
A: 0.15

Q: And the “Final Product Z-avg” value ([1]; Table 23)?
A: 76 nm

Q: And the “Parent ionizable lipid remaining in liver, Average” value (“Parent ionizable lipid remaining” below) ([2]; Table 16, female BALB/c mice (n = 4))?
A: 22.64 nmol/g liver

Q: And the “Parent ionizable lipid remaining” value ([2]; Table 17, female mice (n = 4))?
A: 43.87 nmol/g liver

Q: And the “Parent ionizable lipid remaining” value ([2]; Table 18, female BALB/c mice (n = 4))?
A: 63.32 nmol/g liver

Q: And the “Parent ionizable lipid remaining” value ([3]; 0.25 h post-dose)?
A: 29.17 nmol/g liver

Q: What about the “Parent ionizable lipid remaining” value ([3]; 1 h post-dose) of the same compound?
A: 46.37 nmol/g liver

Q: And the “Parent ionizable lipid remaining” value ([3]; 3 h post-dose)?
A: 63.61 nmol/g liver

Q: What about the “Parent ionizable lipid remaining” value ([3]; 6 h post-dose) of the same compound?
A: 45.23 nmol/g liver

Q: And the “Parent ionizable lipid remaining” value ([3]; 24 h post-dose)?
A: 40.01 nmol/g liver

Q: What about the “Parent ionizable lipid remaining” value ([3]; 168 h post-dose) of the same compound?
A: 34.42 nmol/g liver

Q: What about the EGFP expression ([4]; 0.3 mg/kg IV) of the same compound?
A: 3.65e+07 pg EGFP/g liver

Q: What about the EGFP expression ([4]; 1 mg/kg IV) of the same compound?
A: 1.88e+08 pg EGFP/g liver

Q: What about the EGFP expression ([4]; 3 mg/kg IV) of the same compound?
A: 4.4e+08 pg EGFP/g liver
